From US11000033B2, “Ketone or oxime compound, and herbicide” (NISSAN CHEMICAL CORPORATION, priority 2014, dated 2021)

Key:
Assay type in all cases: in vivo
[1] = tested on: transplanted rice plant; assay: Test Example 1: effect on crop, application before weed generation in submerged conditions (symbol a); details: application herbicide amount 320 g/ha
How it was run: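 Alluvial soil pots flooded to 4 cm water, sown with Echinochloa oryzacola, Scirpus juncoides and Monochoria vaginalis, then transplanted with 2.5 leaf stage rice seedlings; pre-emergence application. Greenhouse 25° C. to 30° C.; scored 0–5 by herbicidal ratio 3 weeks after application.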

[2] = tested on: Abutilon theophrasti; assay: Test Example 5: herbicidal effect by foliage application, plastic box (symbol M); details: 320 g/ha, 3 weeks after application
How it was run: (§1)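 Effect is rated 3 weeks after a foliar spray of water-diluted emulsion concentrate at a predetermined herbicide amount. Plants had grown 14 days in a 25° C. to 30° C. greenhouse from seed in sterilized diluvial soil.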

[3] = tested on: beet; assay: Test Example 5: effect on crop by foliage application, plastic box (symbol f); details: 320 g/ha, 3 weeks after application
How it was run: (§2)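 Foliage-application test plants come from spot sowing in sterilized diluvial soil under a soil layer of about 1.5 cm, grown at 25° C. to 30° C. in a greenhouse.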

[4] = tested on: Avena fatua; assay: Test Example 5: herbicidal effect by foliage application, plastic box (symbol I); details: 320 g/ha, 3 weeks after application
How it was run: as §1

[5] = tested on: Echinochloa crus-galli var. crus-galli; assay: Test Example 3: herbicidal effect by foliage application, Wagner pot (symbol H); details: application herbicide amount 320 g/ha
How it was run: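 In a shallow-flooded alluvial soil system held at 25–30 °C, plants including rice grew for 14 days and were then sprayed over the foliage with emulsion diluted to a fixed herbicide amount. Visual rating followed at 3 weeks.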

[6] = tested on: Amaranthus retroflexus; assay: Test Example 5: herbicidal effect by foliage application, plastic box (symbol N); details: 320 g/ha, 3 weeks after application
How it was run: as §1

[7] = tested on: Setaria viridis; assay: Test Example 5: herbicidal effect by foliage application, plastic box (symbol G); details: 320 g/ha, 3 weeks after application
How it was run: as §1

[8] = tested on: Echinochloa oryzacola Vasing.; assay: Test Example 1: herbicidal activity, application before weed generation in submerged conditions (symbol A); details: application herbicide amount 320 g/ha
How it was run: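 Scores run 0 to 5 by herbicidal ratio, with 5 meaning 90% or more and 0 meaning 5% or lower, read 3 weeks after treatment. Compound was applied as a diluted emulsion to the water surface of submerged alluvial-soil pots on the day weed seeds were sown.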

[9] = tested on: wheat; assay: Test Example 4: effect on crop by soil treatment (symbol e)
How it was run: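 Crop seeds, among them rice, wheat, beet and rapeseed, were sown in sterilized diluvial soil and covered with about 1.5 cm of soil. Boxes were kept in a greenhouse at 25° C. to 30° C. for plant growth.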

[10] = tested on: Amaranthus retroflexus; assay: Test Example 4: herbicidal effect by soil treatment (symbol N)
How it was run: (§3)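 Seeds were sown in sterilized diluvial soil, covered with about 1.5 cm of soil, and the soil surface was sprayed with a water-diluted emulsion of the compound at a predetermined rate. Plants grew in a greenhouse at 25° C. to 30° C.; effects were scored visually 3 weeks after application.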

[11] = tested on: Lolium multiflorum Lam.; assay: Test Example 4: herbicidal effect by soil treatment (symbol K)
How it was run: as §3

[12] = tested on: Stellaria media; assay: Test Example 5: herbicidal effect by foliage application, plastic box (symbol P); details: 320 g/ha, 3 weeks after application
How it was run: as §1

[13] = tested on: Stellaria media; assay: Test Example 4: herbicidal effect by soil treatment (symbol P)
How it was run: as §3

[14] = tested on: Setaria viridis; assay: Test Example 4: herbicidal effect by soil treatment (symbol G)
How it was run: as §3

[15] = tested on: wheat; assay: Test Example 5: effect on crop by foliage application, plastic box (symbol e); details: 320 g/ha, 3 weeks after application
How it was run: as §2

[16] = application herbicide amount 320 g/ha

| SMILES | Effect grade on crop, a: transplanted rice plant [1] | M: Abutilon theophrasti, herbicidal effect grade [2] | f: beet, effect on crop grade [3] | I: Avena fatua, herbicidal effect grade [4] | herbicidal effect on H (Echinochloa crus-galli var. crus-galli), grade 0-5 [5] | N: Amaranthus retroflexus, herbicidal effect grade [6] | G: Setaria viridis, herbicidal effect grade [7] | Herbicidal effect grade, A: Echinochloa oryzacola Vasing. [8] | e: wheat, effect on crop grade [9, 16] | N: Amaranthus retroflexus, herbicidal effect grade [10, 16] | K: Lolium multiflorum Lam., herbicidal effect grade [11, 16] | P: Stellaria media, herbicidal effect grade [12] | P: Stellaria media, herbicidal effect grade [13, 16] | G: Setaria viridis, herbicidal effect grade [14, 16] | e: wheat, effect on crop grade [15] | also measured |
| --- | --- | --- | --- | --- | --- | --- | --- | --- | --- | --- | --- | --- | --- | --- | --- | --- |
| Cc1cc(C)c(C2=C(O)CC(CC(=O)C3CCCC3)C2=O)c(C)c1 (stereo not drawn) [2-028] | 3 (Herbicidal ratio of 40% or higher and lower than 70%) | 0 (Herbicidal ratio of 5% or lower (almost no effect)) | 0 (Herbicidal ratio of 5% or lower (almost no effect)) | 0 (Herbicidal ratio of 5% or lower (almost no effect)) | 5 (Herbicidal ratio of 90% or more (almost completely withered)) | 0 (Herbicidal ratio of 5% or lower (almost no effect)) | 5 (Herbicidal ratio of 90% or more (almost completely withered)) | 3 (Herbicidal ratio of 40% or higher and lower than 70%) | 0 (Herbicidal ratio of 5% or lower (almost no effect)) | 0 (Herbicidal ratio of 5% or lower (almost no effect)) | 5 (Herbicidal ratio of 90% or more (almost completely withered)) | 0 (Herbicidal ratio of 5% or lower (almost no effect)) | 0 (Herbicidal ratio of 5% or lower (almost no effect)) | 5 (Herbicidal ratio of 90% or more (almost completely withered)) | 0 (Herbicidal ratio of 5% or lower (almost no effect)) | – |
| CON=C(C)CC1CC(OC(=O)c2ccccc2)=C(c2c(C)cc(C)cc2C)C1=O (stereo not drawn) [1-010] | 5 (Herbicidal ratio of 90% or more (almost completely withered)) | 4 (Herbicidal ratio of 70% or higher and lower than 90%) | 4 (Herbicidal ratio of 70% or higher and lower than 90%) | 5 (Herbicidal ratio of 90% or more (almost completely withered)) | 5 (Herbicidal ratio of 90% or more (almost completely withered)) | 4 (Herbicidal ratio of 70% or higher and lower than 90%) | 5 (Herbicidal ratio of 90% or more (almost completely withered)) | 5 (Herbicidal ratio of 90% or more (almost completely withered)) | – | – | – | 4 (Herbicidal ratio of 70% or higher and lower than 90%) | – | – | 5 (Herbicidal ratio of 90% or more (almost completely withered)) | e (wheat) effect on crop grade [9, 16]: 4 (Herbicidal ratio of 70% or higher and lower than 90%); N (Amaranthus retroflexus) herbicidal effect grade [10, 16]: 5 (Herbicidal ratio of 90% or more (almost completely withered)); K (Lolium multiflorum Lam.) herbicidal effect grade [11, 16]: 5 (Herbicidal ratio of 90% or more (almost completely withered)); P (Stellaria media) herbicidal effect grade [13, 16]: 4 (Herbicidal ratio of 70% or higher and lower than 90%); G (Setaria viridis) herbicidal effect grade [14, 16]: 3 (Herbicidal ratio of 40% or higher and lower than 70%) |
| CCOC(=O)C(C(=O)c1ccccn1)C1CC(O)=C(c2c(C)cc(C)cc2C)C1=O (stereo not drawn) [2-013] | 0 (Herbicidal ratio of 5% or lower (almost no effect)) | 0 (Herbicidal ratio of 5% or lower (almost no effect)) | 0 (Herbicidal ratio of 5% or lower (almost no effect)) | 3 (Herbicidal ratio of 40% or higher and lower than 70%) | 0 (Herbicidal ratio of 5% or lower (almost no effect)) | 0 (Herbicidal ratio of 5% or lower (almost no effect)) | 5 (Herbicidal ratio of 90% or more (almost completely withered)) | 0 (Herbicidal ratio of 5% or lower (almost no effect)) | 0 (Herbicidal ratio of 5% or lower (almost no effect)) | 0 (Herbicidal ratio of 5% or lower (almost no effect)) | 1 (Herbicidal ratio of 5% or higher and lower than 20%) | 1 (Herbicidal ratio of 5% or higher and lower than 20%) | 0 (Herbicidal ratio of 5% or lower (almost no effect)) | 1 (Herbicidal ratio of 5% or higher and lower than 20%) | 0 (Herbicidal ratio of 5% or lower (almost no effect)) | – |
| CON=C(C)CC1CC(OC(=O)N(C)c2ccccc2)=C(c2c(C)cc(C)cc2C)C1=O (stereo not drawn) [1-159] | 1 (Herbicidal ratio of 5% or higher and lower than 20%) | 4 (Herbicidal ratio of 70% or higher and lower than 90%) | 2 (Herbicidal ratio of 20% or higher and lower than 40%) | 5 (Herbicidal ratio of 90% or more (almost completely withered)) | 4 (Herbicidal ratio of 70% or higher and lower than 90%) | 3 (Herbicidal ratio of 40% or higher and lower than 70%) | 1 (Herbicidal ratio of 5% or higher and lower than 20%) | 5 (Herbicidal ratio of 90% or more (almost completely withered)) | – | – | – | 0 (Herbicidal ratio of 5% or lower (almost no effect)) | – | – | 2 (Herbicidal ratio of 20% or higher and lower than 40%) | e: wheat, effect grade on crop ([9]; 320 g/ha): 1 (Herbicidal ratio of 5% or higher and lower than 20%); N: Amaranthus retroflexus, herbicidal effect grade ([10]; 320 g/ha): 0 (Herbicidal ratio of 5% or lower (almost no effect)); K: Lolium multiflorum Lam., herbicidal effect grade ([11]; 320 g/ha): 5 (Herbicidal ratio of 90% or more (almost completely withered)); P: Stellaria media, herbicidal effect grade ([13]; 320 g/ha): 0 (Herbicidal ratio of 5% or lower (almost no effect)); G: Setaria viridis, herbicidal effect grade ([14]; 320 g/ha): 3 (Herbicidal ratio of 40% or higher and lower than 70%) |
| COC(=O)C(C(=O)C1CC1)C1CC(O)=C(c2c(C)cc(C)cc2C)C1=O (stereo not drawn) [2-014] | 1 (Herbicidal ratio of 5% or higher and lower than 20%) | 3 (Herbicidal ratio of 40% or higher and lower than 70%) | 0 (Herbicidal ratio of 5% or lower (almost no effect)) | 4 (Herbicidal ratio of 70% or higher and lower than 90%) | 5 (Herbicidal ratio of 90% or more (almost completely withered)) | 0 (Herbicidal ratio of 5% or lower (almost no effect)) | 5 (Herbicidal ratio of 90% or more (almost completely withered)) | 4 (Herbicidal ratio of 70% or higher and lower than 90%) | 0 (Herbicidal ratio of 5% or lower (almost no effect)) | 0 (Herbicidal ratio of 5% or lower (almost no effect)) | 4 (Herbicidal ratio of 70% or higher and lower than 90%) | 0 (Herbicidal ratio of 5% or lower (almost no effect)) | 0 (Herbicidal ratio of 5% or lower (almost no effect)) | 5 (Herbicidal ratio of 90% or more (almost completely withered)) | 0 (Herbicidal ratio of 5% or lower (almost no effect)) | – |
